Measured values as given in PubChem BioAssay (NCI).
Values joined by “and” are separate entries in the source; they are usually repeats but may differ in a detail not shown here. Equal values may be shown once.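 Dose response: 5 concentrations. Exposure: 48 h. Format: 96-well plates. Endpoint: linear interpolation; highest concentration if not reached. At the GI50, growth is halved. TGI denotes the concentration required for complete inhibition of growth.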

Legend:
Assay in all cases: NCI tumour cell line growth inhibition, 48 h
[1] = test system: SF-539 CNS
[2] = test system: NCI-H522 lung
[3] = test system: NCI-H23 lung
[4] = test system: SK-MEL-28 melanoma
[5] = test system: SK-OV-3 ovarian
[6] = test system: SK-MEL-2 melanoma
[7] = test system: A549 NSCLC
[8] = test system: HOP-62 NSCLC
[9] = test system: COLO 205 colon
[10] = test system: SN12C renal

| Compound | TGI [1] | TGI [2] | TGI [3] | TGI [4] [µM] | TGI [5] [µM] | TGI [6] | TGI [7] [µM] | TGI [8] [µM] | TGI [9] [µM] | TGI [10] [µM] | GI50 [1] [µM] | GI50 [2] [µM] | GI50 [3] [µM] | GI50 [4] [µM] | GI50 [5] [µM] | GI50 [6] [µM] | GI50 [7] [µM] | GI50 [8] [µM] | GI50 [9] [µM] | GI50 [10] [µM] |
| --- | --- | --- | --- | --- | --- | --- | --- | --- | --- | --- | --- | --- | --- | --- | --- | --- | --- | --- | --- | --- |
| O=C(O)c1cc(N=Nc2ccc([As](=O)(O)O)cc2)ccc1O | > 100 µM | > 100 µM | > 100 µM | > 100 | > 100 | > 100 µM | > 100 | > 100 | > 100 | > 100 |  |  |  |  |  |  |  |  |  |  |
| COC(=O)[C@]12CCC(C)(C)C[C@H]1C1=CC[C@@H]3[C@@]4(C)C/C(=C/c5cccnc5)C(=O)C(C)(C)[C@@H]4CC[C@@]3(C)[C@]1(C)CC2 | 20.7 µM | 28.7 µM | 29.8 µM | 20 | > 100 | 32.1 µM | > 100 | 67 | 25.3 | 23.4 | 7.43 | 8.58 | 8.05 | 6.89 | 27.5 | 11.6 | 11.9 | 13.6 | 6.51 | 4.86 |
| COc1cccc(N=Cc2c3ccccc3c(=O)n3c2oc2ccccc23)c1 | 95.3 µM | > 100 µM | 59 µM | > 100 | > 100 | > 100 µM | 23.7 | 90.1 | > 100 | 23.5 | 16.3 | 24 | 13.3 | > 100 | 73.1 | > 100 | 4.84 | 13.7 | 34.5 | 2.22 |
| CC(C)(C)OC(=O)N(CCCN(CCn1c2c(c3ccccc3c1=O)C(=O)c1ccccc1-2)C(=O)OC(C)(C)C)CCn1c2c(c3ccccc3c1=O)C(=O)c1ccccc1-2 | > 50 µM | > 50 µM | > 50 µM | > 50 | > 50 | > 50 µM | > 50 | > 50 | > 50 | > 50 | > 50 | 47.6 | > 50 | > 50 | > 50 | > 50 | > 50 | 22.3 | > 50 | > 50 |
| NCCCCn1c2c(c3ccccc3c1=O)C(=O)c1ccccc1-2 | 0.462 µM | 2.31 µM | 0.655 µM |  | 9.81 | > 42.4 µM | 0.361 | 0.272 | 11 | 0.244 | 0.102 | 0.424 | 0.129 | 0.671 | 1.04 | 2.38 | 0.0263 | 0.0528 | 0.92 | 0.0385 |
| Cc1cc(C2CCCCC2)n(O)c(=O)c1 | 80.9 µM and 93.8 µM | 49.9 µM and 35.2 µM | > 100 µM and 64.8 µM | > 100 | > 100 | > 100 µM and 65.6 µM | > 100 | 40 | > 100 | > 100 | 2.04 | 4.8 | 3.03 | 4.07 | 1.91 | 10.5 | 1.34 | 0.913 | 4.46 | 1.45 |
| O=C(NC1CCCCCC1)C1C(=O)N(C2CCCCCC2)C(=O)/C1=N\O (centres undefined) | 61.3 µM | 45 µM | 93.1 µM | 87 | > 100 | 40.3 µM | > 100 | 36.5 | 31.2 | > 100 |  |  |  |  |  |  |  |  |  |  |
| COc1cccc(NCc2nnc(Nc3ccc(Cl)cc3)c3ccccc23)c1 | 6.56 µM | 3.31 µM | 6.74 µM | 6.17 | 8.19 | 3.98 µM | 9.42 | 8.48 | 4.01 | 10.7 | 3.07 | 0.302 | 1.22 | 2.62 | 1.13 | 0.708 | 1.93 | 2.06 | 0.492 | 2.52 |
| Nc1nccc(-c2c(-c3ccc(F)cc3)ncn2CCCN2CCOCC2)n1 | > 25 µM | > 25 µM | > 25 µM | > 25 | > 25 | > 25 µM | > 25 | > 25 | > 25 | > 25 | > 25 | > 25 | > 25 | > 25 | > 25 | > 25 | > 25 | > 25 | > 25 | > 25 |
| CCCCNC(=O)NS(=O)(=O)c1ccc(N2N=C(c3ccc(C)cc3C)CC2c2ccc(N(C)C)cc2)cc1 (centres undefined) | 14 µM | 14.8 µM | > 100 µM | 7.96 | > 100 | 8.46 µM | > 100 | > 100 | 7.56 | 89.5 | 3.22 | 3.25 | 4.92 | 2.56 | 8.16 | 3.13 | 3.2 | 6.86 | 3.19 | 3.07 |
| COc1ccc(/C(=N/Nc2ccc([N+](=O)[O-])cc2)Sc2cc(Cl)c(C)cc2S(N)(=O)=O)cc1 | 9.81 µM | 38.1 µM | 9.77 µM | 16.6 | 12.7 | 34 µM | 18.1 | 16.4 | 33.3 | 4.29 | 3.74 | 13.1 | 4.69 | 6.57 | 5.89 | 12.3 | 5.25 | 5.94 | 8.57 | 2.2 |
| CC(=O)SCCC1c2[nH]c3ccccc3c2CCN1O (centres undefined) | > 100 µM | > 100 µM | > 100 µM | > 100 | > 100 | > 100 µM | > 100 | > 100 | > 100 | > 100 |  |  |  |  |  |  |  |  |  |  |
| COc1cc2c3c(n(CCCBr)c(=O)c2cc1OC)-c1ccc(NC(C)=O)cc1C3=O | 16.2 µM | > 100 µM | 46.4 µM | > 100 | 10.6 | > 100 µM | > 100 | 21.3 | > 100 | > 100 | 3.78 | 12.4 | 11.8 | 40.5 | 2.28 | 41.4 | 25.4 | 1.29 | 14.1 | 13.9 |
